The source of these data is patent publication US4605672A, “Diethylaminoalkoxybenzhydrol derivatives, process for their preparation and pharmaceutical compositions containing them” (Richter Gedeon Vegyeszeti Gyar Rt., priority 1982, dated 1986).

A word on the ED50: it is the dose at which the effect has come halfway, by size or by number of responders.

Data set [1] concerns ethanolic narcosis. Briefly: Ethanolic narcosis period (ethanol 3.5 g./kg. i.p.). In kind it is in vivo, Wistar rats. Particulars: 1 h before ethanol 3.5 g./kg. i.p., n=10, control = 100 ± 6.5. The protocol:
The effect of the compounds according to the invention on ethanolic narcosis was tested on male and female Wistar rats, each weighing 160 to 180 g., in groups of 10. The animals were fasted for 16 hours prior to treatment and were then administered various doses of the test compound, orally. One hour after treatment the rats were treated with 3.5 g./kg. of ethanol intraperitoneally (i.p.). The narcosis period of the animals was measured from the elapse of the righting reflex until a spontaneous correction of the body position. The average of the narcosis period and the percentage difference from the control were calculated. […] The control group was treated with a placebo and a […]. dose of ethanol.

Data set [2] relates to catalepsy induced by tetrabenazine. Briefly: Inhibition of catalepsy induced by tetrabenazine. In kind it is in vivo, Hann.-Wistar rats. Particulars: Rattus norvegicus, po; rats; orally, 60 minutes before tetrabenazine 30 mg./kg. i.p.; probit analysis. Here is the method: (§1) To determine the antidepressive activity of the compounds provided by the invention the inhibition of catalepsy induced by tetrabenazine and the inversion of hypothermia induced by reserpin were measured. The anticholinergic activity was tested by determining the inhibition of tremor induced by oxotremorin. As a reference compound imipramine was used.

Data set [3] concerns hypothermia induced by reserpin. Briefly: Inversion of reserpin-hypothermia (antireserpin activity). In kind it is in vivo, male CFLP mice. Particulars: Mus musculus, po; mice; orally, 16 hours after reserpin 5 mg./kg. i.p.; dose increasing body temperature by 50%. Here is the method: as §1
The inversion of reserpin-hypothermia was tested on male CFLP mice, weighing 18 to 22 g. each and treated with a 5 mg./kg. dose of reserpin intraperitoneally. 16 hours after treatment the animals were administered various doses of the test compounds, orally. The rectal temperature of the animals was measured before the reserpin treatment, 16 hours after treatment and 2 hours after the administration of the test compounds.

The subject of data set [4] is tremor induced by oxotremorin. Put plainly: Anticholinergic activity: inhibition of tremor induced by oxotremorin. In kind it is in vivo, male CFLP mice. Particulars: mice, oral; for ED50: Mus musculus, oxotremorin 0.5 mg./kg. i.p., read-out: Oxotremorin inh. (ED50); for Oxotremorin inh. (result in words): remark to the printed 160.0 mg./kg. The protocol:
as §1
The anticholinergic activity was tested on male CFLP mice, weighing 18 to 22 g. each, which were treated with a 0.5 mg./kg. dose of oxotremorin (i.p.) and after 60 minutes with various oral doses of the test compounds.

The nature of another data set: Acute toxicity. Particulars: rat, in vivo; rats; single 500 mg./kg. oral dose; observed for 14 hours; read-out: Toxicity, dead animals (%). The protocol: The acute toxicity of the compounds according to the invention was determined on Hann.-Wistar rats of both sexes, weighing 160 to 180 g. each, which had been treated with a single 500 mg./kg. dose of the test compounds, orally. […] In Table 4 the percentage of the dead animals is given.

The subject of data set [5] is hyperactivity induced by ethanol. Briefly: Hyperactivity induced by ethanol (locomotor activity, Animex BSE motimeter). In kind it is in vivo, BALB/c mice. Particulars: n=15. Here is the method:
The effect of the compounds on hyperactivity induced by ethanol was tested on male and female BALB/c mice, each weighing 16 to 18 g. The test materials were administered to groups of 15 orally, one hour before administering the placebo orally or a 2 g./kg. dose of ethanol intraperitoneally. The control animals were treated with the placebo. The locomotor activity of the animals was measured for two hours, using an Animex BSE motimeter.

The next data set relates to ethanolic ataxia. Put plainly: Ethanolic ataxia and muscular tension on rotating rod. Type of data set: in vivo, BALB/c mice. To be noted: n=10. The protocol: The effect of the compounds according to the invention on ethanolic ataxia and the change of muscular tension was tested on rotating rods. Trained and selected male and female BALB/c mice weighing 16 to 18 g. each were administered a 40 mg./kg. oral dose of the test compounds one hour before intraperitoneal administration of 2.5 g./kg. of ethanol. The time until the animals could remain on the rod was measured 60, 90 and 120 minutes after the ethanolic treatment. This time was 120 minutes for the animals with intact coordination. The results are summarized in Table 3, where the percentage of the animals remaining on the rotating rod is indicated.

Data set [6] relates to ethanolic narcosis. Particulars: known effect of the reference material; cited from earlier work.

Regarding `CCN(CC)CCCOc1ccc(C(O)(CC)c2cccc(C(F)(F)F)c2)cc1` (stereo not drawn) [A, 3-trifluoromethyl-4'-[3-(diethylamino)-propoxy]-α-ethyl-benzhydrol], the results for the “Ethanolic narcosis period (Control ± S.E. %)” value in the data set on ethanolic narcosis [1] (10.0 mg./kg. orally) and with ethanolic narcosis [1] (40.0 mg./kg. orally) were 52 ± 11.1% and 40 ± 5.0%, respectively.
Consider `CCN(CC)CCOc1ccc(C(O)(CC)c2ccc(C(F)(F)F)cc2)cc1` (stereo not drawn) [C, 4-trifluoromethyl-4'-[2-(diethylamino)-ethoxy]-α-ethyl-benzhydrol], for which the figures for the ED50 in data set [2], in data set [3] and in data set [4] were 20 mg/kg, 30 mg/kg and 160 mg/kg, respectively. Also, the “Oxotremorin inh. (result in words)” value in data set [4] is listed as “ineffective”. The mortality at 14 h in the data set “Acute toxicity” was determined as 0%.
Take `CCN(CC)CCOc1ccc(C(O)(CC)c2ccc(Cl)cc2)cc1` (stereo not drawn) [B, 4-chloro-4'-[2-(diethylamino)-ethoxy]-α-ethyl-benzhydrol]: the “Ethanolic narcosis period (Control ± S.E. %)” value was 48 ± 9.5% in the data set on ethanolic narcosis [1] (10.0 mg./kg. orally) and 39 ± 4.5% in the data set with ethanolic narcosis [1] (40.0 mg./kg. orally). The “Locomotor activity (2 hours)” value is listed as 110 ± 8.1 percentage of the control in data set [5] (compound 10.0 mg./kg. orally + ethanol 2000.0 mg./kg. i.p., ethanol + placebo 190 ± 12.2) and 110 ± 15.2 percentage of the control in data set [5] (compound 10.0 mg./kg. orally + placebo (no ethanol), placebo control 100 ± 8.1). In addition, the “% of the animals remaining on the rod” value was determined as 40% in the data set on ethanolic ataxia (compound 40.0 mg./kg. orally + ethanol 2500.0 mg./kg. i.p., 60 minutes, ethanol alone 10); 70% in the data set with ethanolic ataxia (compound 40.0 mg./kg. orally + ethanol 2500.0 mg./kg. i.p., 90 minutes, ethanol alone 40); 90% with ethanolic ataxia (compound 40.0 mg./kg. orally + ethanol 2500.0 mg./kg. i.p., 120 minutes, ethanol alone 50); 100% in the data set on ethanolic ataxia (compound 40.0 mg./kg. orally, no ethanol, 60 minutes); 100% in the data set with ethanolic ataxia (compound 40.0 mg./kg. orally, no ethanol, 90 minutes); 100% with ethanolic ataxia (compound 40.0 mg./kg. orally, no ethanol, 120 minutes).
On to `CCN(CC)CCCOc1ccc(C(O)(CC)c2cccc(Cl)c2)cc1` (stereo not drawn) [D, 3-chloro-4'-[3-(diethylamino)-propoxy]-α-ethyl-benzhydrol], for which the median effective dose (ED50) worked out at 18.8 mg/kg in data set [2], 17 mg/kg in data set [3] and 160 mg/kg in data set [4]. Further, in data set [4], the “Oxotremorin inh. (result in words)” value is listed as “ineffective”. For the same compound, in “Acute toxicity”, the mortality at 14 h is 0%.
For the compound `CN(C)CCCN1c2ccccc2CCc2ccccc21` [Imipramine, reference compound], the ED50 in data set [2] stood at 13.7 mg/kg; in data set [3], 15 mg/kg; in data set [4], 50 mg/kg. The mortality at 14 h in the data set “Acute toxicity” is 80%.
On to `N[C@@H](CS)C(=O)O` [L-cysteine, reference compound], for which the “Ethanolic narcosis period (Control ± S.E. %)” value in the data set with ethanolic narcosis [1] (500.0 mg./kg. orally) came out at 63 ± 4.2%. For the same compound, in the data set with ethanolic narcosis [6], the “alcoholic narcosis reducing effect” value is on record as “known to have an alcoholic narcosis reducing effect”.
